Results as given in EP4640672A1, “ETHYLENEDIAMINE DERIVATIVE, AND PREPARATION METHOD THEREFOR AND USE THEREOF” (Jiangsu Protelight Pharmaceutical & Biotechnology Co., Ltd., priority 2022, dated 2024).

Legend:
Liver cancer HepG2 = assay: in vitro anti-tumor activity assay (MTT method); format: cell-based, human; conditions: Liver cancer HepG2, culture medium High-sugar DMEM, 48 h of culture
Method: (§1) Five human tumor cell lines were selected and cultured in RPMI-1640 (Gibco) or DMEM (Gibco) or GMEM/F12 medium (Gibco) containing 10% inactivated fetal bovine serum, 100 U/ml penicillin and […] streptomycin in an incubator containing 5% CO2 at 37°C. Logarithmically growing cells were seeded in 96-well plates (100 µl per well, 2 x 10^4 cells) using the MTT method, while setting blank control wells. After overnight incubation in the incubator, 100 µl of drug (final concentration 25 µM diluted to 0.39 µM, a total of 7 groups of drug concentrations) was added, an equal volume of culture medium was added in the blank control wells, and 3 duplicate wells were set for each drug concentration. After 48 h of culture, the supernatant was discarded. After washing twice with PBS, 100 µl of MTT (5mg/ml) was added to each well, and the culture was continued for 2 h. Absorbance (A492nm) was measured by a microplate reader to calculate the inhibition rate of the drug on tumor cells.
(§2) IC50 values of compounds on tumor cells were calculated using GraphPad software. […] Table 2. In vitro anti-tumor activity IC50 (µM) of example compounds

Lung cancer H460 = assay: in vitro anti-tumor activity assay (MTT method); format: cell-based, human; conditions: 48 h of culture
Method: as §1, §2

Prostate cancer LNcap = assay: in vitro anti-tumor activity assay (MTT method); format: cell-based, human; conditions: culture medium RPMI-1640, 48 h of culture
Method: as §1, §2

Prostate cancer PC-3 = assay: in vitro anti-tumor activity assay (MTT method); format: cell-based, human; conditions: Prostate cancer PC-3, culture medium F12, 48 h of culture
Method: as §1, §2

Lung cancer A549 = assay: in vitro anti-tumor activity assay (MTT method); format: cell-based, human; conditions: Lung cancer A549, culture medium F12, 48 h of culture
Method: as §1, §2

A549 lung cancer cells = assay: in vivo anti-tumor efficacy assay, subcutaneous tumor model; conditions: BALB/c nude mice, intraperitoneally 20 mg/kg once per two days, 10 times; for Tumor inhibition rate: calculated from tumor weight; for Mean tumor weight (g) (mean ± SD): weighed on 2nd day after last administration
Method: An in vivo efficacy evaluation model was established in BALB/c nude mice. Each mouse was inoculated subcutaneously with 0.15 mL of tumor cell suspension (A549 lung cancer cells, 2 x 10^7 cells/ml) in the axillary fossa of the right forelimb. When the inoculated cells grew to 300 mm^3, the administration was started. On the 22nd day after inoculation, the mice were intraperitoneally administered (20 mg/kg) once per two days for a total of 10 times. On the 2nd day after the last administration, all the tumor-bearing mice were sacrificed, the tumors were weighed and the tumor inhibition rate was calculated. […] Table 3 Results of in vivo anti-tumor activity of the example compounds

[1] = Homo sapiens, NCI-H460, Lung cancer H460, culture medium High-sugar DMEM

IC50 (Liver cancer HepG2; Homo sapiens) | IC50 (Lung cancer H460; [1]) | IC50 (Prostate cancer LNcap; Homo sapiens) | IC50 (Prostate cancer PC-3; Homo sapiens) | IC50 (Lung cancer A549; Homo sapiens) | Structure (SMILES) | Tumor inhibition rate (A549 lung cancer cells) | Mean tumor weight (g) (mean ± SD) (A549 lung cancer cells) | IC50 (Liver cancer HepG2) | IC50 (Lung cancer H460; Lung cancer H460, culture medium High-sugar DMEM) | IC50 (Prostate cancer LNcap) | IC50 (Prostate cancer PC-3) | IC50 (Lung cancer A549)
970 nM | 990 nM | 3760 nM | 3030 nM | 2690 nM | CC1(C)CC(NC[C@H](Cc2ccc(OCc3c(Cl)cccc3Cl)cc2)NC(=O)C/C=C/c2ccccc2)CC(C)(C)N1 [Cpd001, (S,E)-N-(1-(4-((2,6-dichlor obenzyl)oxy)phenyl)-3-((2,2,6,6-tetramethylpiperidin-4-yl)amino)propan-2-yl)-4-phenylbut-3-enamide] | – | – | – | – | – | – | –
430 nM | 1650 nM | 3240 nM | 1650 nM | 3050 nM | COc1ccc2cc(C(C)C(=O)NC(Cc3ccc(-c4ccccc4)cc3)C(=O)NC3CC(C)(C)NC(C)(C)C3)ccc2c1 (stereo not drawn) [PL-AC-202] | 19.37% | 0.537 ± 0.198 g | – | – | – | – | –
– | – | – | – | – | CC(=O)O[C@@]12CO[C@@H]1C[C@H](O)[C@@]1(C)C(=O)[C@H](O)C3=C(C)[C@@H](OC(=O)[C@H](O)[C@@H](NC(=O)OC(C)(C)C)c4ccccc4)C[C@@](O)([C@@H](OC(=O)c4ccccc4)[C@H]21)C3(C)C [Docetaxol, docetaxel] | 5.29% | 0.631 ± 0.231 g | – | – | – | – | –
1470 nM | 2260 nM | 1510 nM | 3730 nM | 1940 nM | CCC(C(=O)N[C@H](CNC1CC(C)(C)NC(C)(C)C1)Cc1ccc(-c2ccccc2)cc1)C1CCCCC1 (stereo partly drawn) [Cpd009, N-((S)-1-([1,1'-biphenyl]-4-yl)-3-((2,2,6,6-tetramethylpiperidin-4-yl)amino)propan-2-yl)-2-cyclohexylbutanamide] | – | – | – | – | – | – | –
1910 nM | 2370 nM | 1920 nM | 4310 nM | 4380 nM | CC1(C)CC(NC(=O)C(Cc2ccc(-c3ccccc3)cc2)NC(=O)c2cc3ccccc3n2Cc2ccccc2)CC(C)(C)N1 (stereo not drawn) [PL-AC-15] | – | – | – | – | – | – | –
– | – | – | – | – | N.N.[Cl][Pt][Cl] [Cisplati num, Cisplatinum] | – | – | 30800 nM | 20400 nM | 11600 nM | 68600 nM | 34000 nM
1090 nM | 1580 nM | 1020 nM | 3310 nM | 2340 nM | CC1(C)CC(NC[C@H](Cc2ccc(-c3ccccc3)cc2)NC(=O)C=Cc2ccccc2)CC(C)(C)N1 (stereo in doubt) [Cpd014, (S)-N-(1-([1,1'-biphenyl]-4-yl)-3-((2,2,6,6-tetramethylpiperidin-4-yl)amino)propan-2-yl)cinnamamide] | 32.73% | 0.448 ± 0.128 g | – | – | – | – | –
